Test results as given in ChEMBL document CHEMBL1201862, “PubChem BioAssay data set” (2004).
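Protocol summary: plate cells (96-well), add compound at 5 concentrations, incubate 48 h, interpolate endpoints linearly. Here, GI50 denotes the concentration required for 50% inhibition of growth.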 Calls of active or inactive are those of the source. Rule as the data show it: active = GI50 up to about 1.1 µM and inactive = higher.

Columns and labels:
Experiment in all cases: DTP human tumour cell line panel, 48 h
[1] = system: OVCAR-8
[2] = system: OVCAR-3
[3] = system: SK-MEL-28
[4] = system: SNB-19
[5] = system: IGROV-1
[6] = system: HCT-15
[7] = system: M14
[8] = system: SK-MEL-2
[9] = system: A498
[10] = system: SF-539
[11] = system: LXFL 529
[12] = system: OVCAR-5
[13] = system: K562
[14] = system: HCT-116
[15] = system: SF-295
[16] = system: DLD-1
[17] = system: SNB-75
[18] = system: CCRF-CEM
[19] = system: HT-29
[20] = system: SNB-78
[21] = system: DMS-114
[22] = system: UACC-62
[23] = system: CAKI-1
[24] = system: EKVX
[25] = system: TK-10
[26] = system: SK-OV-3
[27] = system: LOX IMVI
[28] = system: COLO 205
[29] = system: HL-60
[30] = system: HOP-18
[31] = system: NCI-H460
[32] = system: NCI-H226
[33] = system: SK-MEL-5
[34] = system: RPMI-8226
[35] = system: ACHN
[36] = system: DMS-273
[37] = system: SN12C
[38] = system: UO-31
[39] = system: OVCAR-4
[40] = system: HCC 2998
[41] = system: U-251
[42] = system: A549
[43] = system: M19-MEL
[44] = system: SF-268
[45] = system: KM12
[46] = system: XF498
[47] = system: KM-20L2
[48] = system: MOLT-4
[49] = system: 786-0
[50] = system: Malme-3M
[51] = system: RXF 393
[52] = system: SW-620
[53] = system: UACC-257
[54] = system: NCI-H23
[55] = system: MDA-MB-231
[56] = system: Hs-578T
[57] = system: BT-549
[58] = system: SR
[59] = system: PC-3
[60] = system: T47D
[61] = system: MDA-MB-435
[62] = system: HOP-62
[63] = system: HOP-92
[64] = system: DU-145
[65] = system: MDA-N
[66] = system: NCI/ADR-RES
[67] = system: NCI-H522
[68] = system: MCF7

COc1ccc(C(=O)C/C(=N/NC(N)=S)C(=O)Nc2ccccc2)cc1
GI50 [1]: > 100 µM (inactive) | GI50 [2]: > 100 µM (inactive) | GI50 [3]: > 100 µM (inactive) | GI50 [4]: > 100 µM (inactive) | GI50 [5]: > 100 µM (inactive) | GI50 [6]: > 100 µM | GI50 [7]: > 100 µM (inactive) | GI50 [8]: > 100 µM (inactive) | GI50 [9]: > 100 µM (inactive) | GI50 [10]: > 100 µM (inactive) | GI50 [11]: 97.7 µM (inactive) | GI50 [12]: > 100 µM (inactive) | GI50 [13]: > 100 µM (inactive) | GI50 [14]: > 100 µM (inactive) | GI50 [15]: > 100 µM (inactive) | GI50 [16]: > 100 µM (inactive) | GI50 [17]: 99.3 µM (inactive) | GI50 [18]: > 100 µM (inactive) | GI50 [19]: > 100 µM (inactive) | GI50 [20]: > 100 µM (inactive) | GI50 [21]: > 100 µM (inactive) | GI50 [22]: > 100 µM (inactive) | GI50 [23]: > 100 µM (inactive) | GI50 [24]: > 100 µM (inactive) | GI50 [25]: > 100 µM (inactive) | GI50 [26]: > 100 µM (inactive) | GI50 [27]: > 100 µM (inactive) | GI50 [28]: > 100 µM (inactive) | GI50 [29]: > 100 µM (inactive) | GI50 [30]: > 100 µM (inactive) | GI50 [31]: > 100 µM (inactive) | GI50 [32]: > 100 µM (inactive) | GI50 [33]: > 100 µM (inactive) | GI50 [34]: > 100 µM (inactive) | GI50 [35]: > 100 µM (inactive) | GI50 [36]: > 100 µM (inactive) | GI50 [37]: > 100 µM (inactive) | GI50 [38]: > 100 µM (inactive) | GI50 [39]: 31.9 µM (inactive) | GI50 [40]: > 100 µM (inactive) | GI50 [41]: > 100 µM (inactive) | GI50 [42]: > 100 µM (inactive) | GI50 [43]: > 100 µM (inactive) | GI50 [44]: > 100 µM (inactive) | GI50 [45]: > 100 µM (inactive) | GI50 [46]: > 100 µM (inactive) | GI50 [47]: > 100 µM (inactive) | GI50 [48]: > 100 µM (inactive) | GI50 [49]: > 100 µM (inactive) | GI50 [50]: > 100 µM (inactive) | GI50 [51]: > 100 µM (inactive) | GI50 [52]: > 100 µM (inactive) | GI50 [53]: > 100 µM (inactive) | GI50 [54]: > 100 µM (inactive)

COc1cc(-c2ccc(Nc3ccccc3C(=O)O)c(OC)c2)ccc1Nc1ccccc1C(=O)O
GI50 [1]: 8.95 µM (inactive) | GI50 [2]: 20.6 µM (inactive) | GI50 [55]: 13.7 µM (inactive) | GI50 [3]: 33.8 µM (inactive) | GI50 [4]: 10.2 µM (inactive) | GI50 [56]: 11.3 µM (inactive) | GI50 [5]: 21 µM (inactive) | GI50 [57]: 15.8 µM (inactive) | GI50 [6]: 0.619 µM | GI50 [58]: 0.557 µM (active) | GI50 [7]: 26.5 µM (inactive) | GI50 [59]: 2 µM (inactive) | GI50 [8]: 19.3 µM (inactive) | GI50 [60]: 11.2 µM (inactive) | GI50 [9]: > 47.2 µM (inactive) | GI50 [10]: 5.45 µM (inactive) | GI50 [11]: 1.68 µM (inactive) | GI50 [12]: > 37.5 µM (inactive) | GI50 [13]: 1.35 µM (inactive) | GI50 [14]: 0.792 µM (active) | GI50 [61]: 8.59 µM (inactive) | GI50 [62]: 8.57 µM (inactive) | GI50 [63]: 41 µM (inactive) | GI50 [15]: 11.9 µM (inactive) | GI50 [16]: > 28 µM (inactive) | GI50 [17]: 30.2 µM (inactive) | GI50 [18]: 2.38 µM (inactive) | GI50 [19]: 31 µM (inactive) | GI50 [20]: 32 µM (inactive) | GI50 [21]: 25.4 µM (inactive) | GI50 [22]: 1.46 µM (inactive) | GI50 [23]: 8.69 µM (inactive) | GI50 [64]: 8.65 µM (inactive) | GI50 [24]: 58.7 µM (inactive) | GI50 [25]: 36.6 µM (inactive) | GI50 [26]: 23.4 µM (inactive) | GI50 [65]: 10 µM (inactive) | GI50 [27]: 1.28 µM (inactive) | GI50 [28]: 48.3 µM (inactive) | GI50 [29]: 1.91 µM (inactive) | GI50 [30]: > 100 µM (inactive) | GI50 [31]: 1.94 µM (inactive) | GI50 [32]: 22.6 µM (inactive) | GI50 [33]: 16.6 µM (inactive) | GI50 [34]: 2.33 µM (inactive) | GI50 [66]: > 46.2 µM (inactive) | GI50 [35]: 8.69 µM (inactive) | GI50 [36]: 1.81 µM (inactive) | GI50 [67]: 8.87 µM (inactive) | GI50 [37]: 9.91 µM (inactive) | GI50 [38]: 13.6 µM (inactive) | GI50 [39]: 28.2 µM (inactive) | GI50 [40]: 21.7 µM (inactive) | GI50 [41]: 3.3 µM (inactive) | GI50 [42]: 4.22 µM (inactive) | GI50 [44]: 11.4 µM (inactive) | GI50 [45]: 7.53 µM (inactive) | GI50 [46]: > 40.1 µM (inactive) | GI50 [47]: > 56 µM (inactive) | GI50 [48]: 1.13 µM (inactive) | GI50 [49]: 4.52 µM (inactive) | GI50 [50]: 39.6 µM (inactive) | GI50 [68]: 5.08 µM (inactive) | GI50 [51]: 21.2 µM (inactive) | GI50 [52]: 7.38 µM (inactive) | GI50 [53]: 20.5 µM (inactive) | GI50 [54]: 18.3 µM (inactive)
